Laboratory results reported in patent US5306496A, “Antibiotics NK374186A, NK374186B, NK374186B3 and NK374186C3, process for producing the same, and use of the same” (Nippon Kayaku Kabushiki Kaisha, priority 1991, dated 1994).
≈ marks a conversion by molar mass, not a printed value.

Key:
[1] = tested on: Bacillus megaterium ATCC 14945; assay: Antibacterial activity, MIC by agar dilution method; format: cell-based; conditions: Muller/Hinton medium, 37° C., overnight
Description: (§1) The antibacterial and antifungal activities of each antibiotic are expressed in minimum inhibitory concentration (MIC) determined by the agar dilution method. In the antibacterial activity test, each test microorganism is inoculated onto a Muller/Hinton medium and cultured therein at 37° C. overnight to observe the growth of the microorganism. In the antifungal activity test, each test microorganism is inoculated onto a Czapek medium and cultured therein at 27° C. for 2 to 3 days, followed by the observation of the growth of the microorganism.

Escherichia coli K-12 = assay: as above; format: cell-based; conditions: Muller/Hinton medium, 37° C., overnight
Description: as §1

[2] = tested on: Micrococcus flavus ATCC 10240; assay: as above; format: cell-based; conditions: Muller/Hinton medium, 37° C., overnight
Description: as §1

[3] = tested on: Staphylococcus aureus FDA 209P; assay: as above; format: cell-based; conditions: Muller/Hinton medium, 37° C., overnight
Description: as §1

[4] = tested on: Bacillus subtilis IAM 1072; assay: as above; format: cell-based; conditions: Muller/Hinton medium, 37° C., overnight
Description: as §1

[5] = tested on: Bacillus subtilis ATCC 6633; assay: as above; format: cell-based; conditions: Muller/Hinton medium, 37° C., overnight
Description: as §1

[6] = as above; format: cell-based; conditions: Mycobacterium luteus ATCC 9341; Muller/Hinton medium, 37° C., overnight
Description: as §1

Escherichia coli NIHJ = assay: as above; format: cell-based; conditions: Muller/Hinton medium, 37° C., overnight
Description: as §1

Solubility = format: physicochemical
[7] = tested on: Trycophyton mentagrophytes IFO 5466; assay: Antifungal activity, MIC by agar dilution method; format: cell-based; conditions: Czapek medium, 27° C., 2 to 3 days
Description: as §1

[8] = tested on: Candida albicans IFO 1385; assay: Antifungal activity, MIC by agar dilution method; format: cell-based; conditions: Czapek medium, 27° C., 2 to 3 days
Description: as §1

[9] = tested on: Rhizopus hanguchao IFO 4749; assay: Antifungal activity, MIC by agar dilution method; format: cell-based; conditions: Czapek medium, 27° C., 2 to 3 days
Description: as §1

Botrytis fabae IFO 6183 = assay: Antifungal activity, MIC by agar dilution method; format: cell-based; conditions: Czapek medium, 27° C., 2 to 3 days
Description: as §1

[10] = tested on: Penicillium chrysogenum IFO 8645; assay: Antifungal activity, MIC by agar dilution method; format: cell-based; conditions: Czapek medium, 27° C., 2 to 3 days
Description: as §1

[11] = tested on: Aspergillus niger IFO 4407; assay: Antifungal activity, MIC by agar dilution method; format: cell-based; conditions: Czapek medium, 27° C., 2 to 3 days
Description: as §1

Mucor javanicus IFO 4569 = assay: Antifungal activity, MIC by agar dilution method; format: cell-based; conditions: Czapek medium, 27° C., 2 to 3 days
Description: as §1

[12] = tested on: mouse lymphoblast formation with LPS (spleen cells); assay: Mouse lymphoblast formation with LPS ([^3 H]-thymidine uptake); format: cell-based, BALB/C mouse; conditions: 72 hours, control = 100
Description: (§2) An RPMI 1640 medium containing 20% of fetal calf serum, 25 mM of Hepes buffer, 100 μg/ml of streptomycin and 100 U/ml of penicillin G is used. The incubation is carried out in a 96-well flat-bottomed microplate (COSTAR). As a mitogen, lipopolysaccharide (LPS) and concanavalin A (Con A) are used respectively at final concentrations of 100 μg/ml and 5 μg/ml.
(§3) The spleen of a BALB/C mouse (female,>20 weeks in age) is taken out and a single-cell suspension is prepared. After removing erythrocytes by hyper shock, the suspension is used as such for the treatment with LPS. For the treatment with Con A, on the other hand, the suspension is passed through a Nylon Fiber (a product of Wako Pure Chemicals, Inc.) for separating T cells. 2×10^5 /well of the spleen cells and each test compound of the concentration as specified above are added to thereby give a total volume of 0.2 ml/well, followed by incubation for 72 hours. 8 hours before the completion of the incubation, 37 KBq/well of [^3 H]-thymidine is added and the thymidine uptake in the cells is measured. The effect is evaluated based on the ratio of the [^3 H]-thymidine uptake of a test group to that of a control group ["Meneki Jikken Sosa-ho (Procedures of Immunological Tests)", ed. by Japan Assoc. of Immunol., pages 2267-2276].

[13] = tested on: Bacilli, Staphylococcus and Micrococcus; assay: Antibacterial activity, summary in words; format: cell-based; conditions: on Bacilli, agar dilution method
Description: as §1

Li-7 = assay: Cell growth suppressing activity (MTT method); format: cell-based; conditions: Li-7, human hepatic cancer, 2 days
Description: (§4) Cells are incubated in an RPMI 1640 medium containing 10% of fetal calf serum at 37° C. under 5% of CO2. Then these cells are sowed in a 96-well plate and pre-incubated for 1 day, followed by the addition of each test compound. The treatment with the test compound was carried out for 2 days and the activity of suppressing the cell growth was evaluated by the MTT method.

A2780 = assay: Cell growth suppressing activity (MTT method); format: cell-based; conditions: A2780, human ovarian cancer, 2 days
Description: as §4

CDF-1 mice = assay: Toxicity, repeated intraperitoneal administration; format: in vivo; conditions: 100 mg/kg intraperitoneal once a day for 10 days
Description: 100 mg/kg of NK374186A and NK374186B are intraperitoneally administered to CDF-1 mice (male, aged 8 weeks) repetitively once a day for 10 days. Each test compound is administered in the form of a solution in 3.5% DMSO+6.5% Tween+90% physiological saline.

Li-7, A2780 and 2780^AD = assay: Cell growth suppressing activity (MTT method), all cell lines, in words; format: cell-based, human; conditions: each cell line
Description: as §4

[14] = tested on: transplanted section/host reaction (GVH); assay: Transplanted section/host reaction (GVH), spleen weighing method; format: in vivo, BDF mouse; conditions: for Spleen/total body weight ± S.D. / Index (spleen/total body weight): subcutaneous, 3 days; for Spleen/total body weight ± S.D.: seventh day after transplantation; for Index (spleen/total body weight): untreated = 1.00
Description: This test is carried out in accordance with the spleen weighing method of Ford et al. [Ford, W. L., et al., Handbook of Experimental Immunology 30 (ed. by Weir, D. M.), Blackwell Scientific Publications, (1978), page 1]. 5×10^6 spleen cells obtained from a donor C57BL/6 mouse (male, aged 8 weeks) are transplanted into the peritoneal cavity of a BDF mouse (male, aged 7 weeks) which is the Fl hybrid receptor. At the same time, NK374186 and a control drug are dissolved in a solvent (0.25 % gum arabic) and subcutaneously injected into the dorsum of the receptor mouse. As a control, the solvent alone is also subcutaneously injected into the dorsum of the mouse. The same administration is effected on the next day and on the following day. On the seventh day after the transplantation, the spleen of the animal is weighed.

2780^AD = assay: Cell growth suppressing activity (MTT method), adriamycin-resistant strain; format: cell-based, human; conditions: adriamycin-resistant strain obtained from A2780, 2 days
Description: as §4

mammalian cells = assay: Suppressing the growth of mammalian cells, in words; format: cell-based
[15] = tested on: mouse lymphoblast formation with LPS and Con A; assay: Mouse lymphoblast formation with LPS and Con A, summary in words; format: cell-based, BALB/C mouse
Description: as §2, §3

[16] = tested on: mouse lymphoblast formation with Con A (T cells); assay: Mouse lymphoblast formation with Con A ([^3 H]-thymidine uptake); format: cell-based, BALB/C mouse; conditions: Con A 5 μg/ml, 72 hours, control = 100
Description: as §2, §3

C=CC(C)(C)[C@H](NC(=O)[C@H](C)[C@H](O)[C@H](C)[C@H](O)CCCCCCCCCCCCC)C(=O)N[C@H](C(=O)N[C@@H](C=O)C(=O)O)[C@@H](C)O [NK374186B]
MIC [1]: 6.25 µg/mL (≈ 9.53 µM)
MIC (Escherichia coli K-12): > 100 µg/mL
MIC [2]: 3.13 µg/mL (≈ 4.77 µM)
MIC [3]: 3.13 µg/mL (≈ 4.77 µM)
MIC [4]: 6.25 µg/mL (≈ 9.53 µM)
MIC [5]: > 100 µg/mL
MIC [6]: > 100 µg/mL
MIC (Escherichia coli NIHJ): > 100 µg/mL
solubility (Solubility): soluble in lower alcohols, chloroform and ethyl acetate
MIC [7]: > 100 µg/mL
MIC [8]: > 100 µg/mL
MIC [9]: > 100 µg/mL
MIC (Botrytis fabae IFO 6183): > 100 µg/mL
MIC [10]: > 100 µg/mL
MIC [11]: > 100 µg/mL
MIC (Mucor javanicus IFO 4569): > 100 µg/mL
Function index, LPS ([12]; 0.1 μg/ml, LPS 100 μg/ml): 156.3%
Function index, LPS ([12]; 1 μg/ml, LPS 100 μg/ml): 156.3%
Function index, LPS ([12]; 10 μg/ml, LPS 100 μg/ml): 94.7%
Function index, LPS ([12]; 100 μg/ml): 0.8%
antibacterial activity [13]: potent antibacterial activity on Bacilli, Staphylococcus and Micrococcus
IC50 (Li-7): 7.0 µg/mL (≈ 10.7 µM)
IC50 (A2780): 6.6 µg/mL (≈ 10.1 µM)
death of mice (CDF-1 mice): none of these compounds causes the death of mice
toxicity (CDF-1 mice): low toxicity
clinical conditions (CDF-1 mice; versus solvent control group): no difference from those of the solvent control group
cell growth suppression (Li-7, A2780 and 2780^AD): suppress the growth of each cell line
Spleen/total body weight ± S.D. ([14]; 0.5 mg/kg): 8.24 ± 1.54 ×10^-3
Index (spleen/total body weight) ([14]; 0.5 mg/kg): 1.74
Spleen/total body weight ± S.D. ([14]; 5 mg/kg): 11.32 ± 3.61 ×10^-3
Index (spleen/total body weight) ([14]; 5 mg/kg, * printed): 2.40
Spleen/total body weight ± S.D. ([14]; 50 mg/kg): 12.63 ± 3.37 ×10^-3
Index (spleen/total body weight) ([14]; 50 mg/kg, * (A), ** (B) printed): 2.67
GVH reaction ([14]; in words): significantly enhanced
spleen/total body weight ratio ([14]; in words): increased depending on the dose
IC50 (2780^AD): 33 µg/mL (≈ 50.3 µM)
activity of suppressing the growth of mammalian cells (mammalian cells): weak activity of suppressing the growth of mammalian cells
lymphoblast formation ([15]; at a concentration of 10 μg/ml or above): potently suppress the same at a concentration of 10 μg/ml or above
lymphoblast formation ([15]; at a lower concentration): promote the lymphoblast formation with LPS and Con A at a lower concentration
Function index, Con A ([16]; 0.1 μg/ml): 133.7%
Function index, Con A ([16]; 1 μg/ml): 168.8%
Function index, Con A ([16]; 10 μg/ml): 111.6%
Function index, Con A ([16]; 100 μg/ml): 31.5%
